Test results reported in patent US8765728B2, “[1,5]-diazocin derivatives” (MelliTech, priority 2009, dated 2014).

system: Min6 cell; assay: Insulin secretion response of beta cell line to formula I compounds (insulin ELISA); type: cell-based; conditions: rank according to % increase versus control at most effective dose
Procedure: The secretory responses of beta cell lines to glucose were tested as described in Merglen et al. Endocrinology, (2004) 145(2):667-78.
Briefly, after incubation with compounds from formula I or control vehicle, cells were maintained for 2 hours in glucose-free culture medium. The cells were then washed twice and preincubated for 30 minutes at 37° C. in glucose-free Krebs-Ringer bicarbonate HEPES buffer (KRBH: 135 mM NaCl, 3.6 mM KCl, 5 mM NaHCO3, 0.5 mM NaH2PO4, 0.5 mM MgCl2, 1.5 mM CaCl2, and 10 mM HEPES, pH 7.4). BSA (0.1%) was added as an insulin carrier. Cells were subsequently washed with glucose-free KRBH and then incubated for 30 minutes at 37° C. in KRBH containing different concentrations of glucose. The reaction was stopped by placing the plates on ice; supernatants were collected to determine insulin secretion and cells were used for intracellular insulin content following acid-ethanol extraction. Insulin was measured by ELISA (Linco) according to the manufacturer's instructions.

Row | Compound | Insulin secretion (Min6 cell) Range 1 to 5
1 | COc1cccc(C(O)CN2CCC(=O)N(C3CC3)Cc3cc(F)ccc32)c1 (stereo not shown) [Compound 58, 5-cyclopropyl-8-fluoro-1-(2-hydroxy-2-(3-methoxyphenyl)ethyl)-2,3,5,6-tetrahydrobenzo[b][1,5]diazocin-4(1H)-one] | 2 (2: 110-120% of control)
2 | COc1ccc(C(O)CN2CCC(=O)N(C3CC3)Cc3cc(F)ccc32)cc1 (stereo not shown) [Compound 59, 5-cyclopropyl-8-fluoro-1-(2-hydroxy-2-(4-methoxyphenyl)ethyl)-2,3,5,6-tetrahydrobenzo[b][1,5]diazocin-4(1H)-one] | 2 (2: 110-120% of control)
3 | O=C1CCN(CC(O)c2ccc3c(c2)OCCO3)c2ccc(F)cc2CN1C1CC1 (stereo not shown) [Compound 60, 5-cyclopropyl-1-(2-(2,3-dihydrobenzo[b][1,4]dioxin-6-yl)-2-hydroxyethyl)-8-fluoro-2,3,5,6-tetrahydrobenzo[b][1,5]diazocin-4(1H)-one] | 2 (2: 110-120% of control)
4 | O=C1CCN(CC(O)c2ccccc2)c2ccc(F)cc2CN1C1CC1 (stereo not shown) [Compound 61, 5-cyclopropyl-8-fluoro-1-(2-hydroxy-2-phenylethyl)-2,3,5,6-tetrahydrobenzo[b][1,5]diazocin-4(1H)-one] | 3 (3: 120-140% of control)
5 | O=C1CCNc2cnccc2CN1C1CC1 [Compound 62, 5-cyclopropyl-2,3,5,6-tetrahydropyrido[3,4-b][1,5]diazocin-4(1H)-one] | 2 (2: 110-120% of control)
6 | C=CCOc1c(OC)ccc2c1CN(C1CCCC1)C(=O)CCN2CC(=O)O [Compound 63, 2-(7-(allyloxy)-5-cyclopentyl-8-methoxy-4-oxo-3,4,5,6-tetrahydrobenzo[b][1,5]diazocin-1(2H)-yl)acetic acid] | 1 (1: 90-110% of control)
7 | O=C1CCN(CC(O)c2ccc(N3CCCC3)cc2)c2ccc(F)cc2CN1C1CC1 (stereo not shown) [Compound 64, 5-cyclopropyl-8-fluoro-1-(2-hydroxy-2-(4-(pyrrolidin-1-yl)phenyl)ethyl)-2,3,5,6-tetrahydrobenzo[b][1,5]diazocin-4(1H)-one] | 5 (5: >170% of control)
8 | O=C1CCN(CC(O)COc2ccc(F)cc2)c2ccc(F)cc2CN1C1CC1 (stereo not shown) [Compound 65, 5-cyclopropyl-8-fluoro-1-(3-(4-fluorophenoxy)-2-hydroxypropyl)-2,3,5,6-tetrahydrobenzo[b][1,5]diazocin-4(1H)-one] | 3 (3: 120-140% of control)
9 | O=C1CCN(C[C@H](O)COCc2ccccc2)c2ccc(F)cc2CN1C1CC1 [Compound 66, (S)-1-(3-(benzyloxy)-2-hydroxypropyl)-5-cyclopropyl-8-fluoro-2,3,5,6-tetrahydrobenzo[b][1,5]diazocin-4(1H)-one] | 1 (1: 90-110% of control)
10 | COc1ccc2c(c1)CN(C1CC1)C(=O)CCN2C[C@H](O)COCc1ccccc1 [Compound 67, (S)-1-(3-(benzyloxy)-2-hydroxypropyl)-5-cyclopropyl-8-methoxy-2,3,5,6-tetrahydrobenzo[b][1,5]diazocin-4(1H)-one] | 3 (3: 120-140% of control)
11 | COc1ccc2c(c1)CN(C1CC1)C(=O)CCN2C[C@@H](O)CO [Compound 68, (R)-5-cyclopropyl-1-(2,3-dihydroxypropyl)-8-methoxy-2,3,5,6-tetrahydrobenzo[b][1,5]diazocin-4(1H)-one] | 3 (3: 120-140% of control)
12 | O=C(c1ccc(F)cc1)N1CCC(=O)N(C2CC2)Cc2cc(F)ccc21 [Compound 69, 5-cyclopropyl-8-fluoro-1-(4-fluorobenzoyl)-2,3,5,6-tetrahydrobenzo[b][1,5]diazocin-4(1H)-one] | 1 (1: 90-110% of control)
13 | O=C(c1cccnc1)N1CCC(=O)N(C2CC2)Cc2cc(F)ccc21 [Compound 70, 5-cyclopropyl-8-fluoro-1-nicotinoyl-2,3,5,6-tetrahydrobenzo[b][1,5]diazocin-4(1H)-one] | 1 (1: 90-110% of control)
